Measurements: patent US7309817B2, “Plant alpha farnesene synthase and polynucleotides encoding same” (The Horticulture and Food Research Institute of New Zealand …, priority 2002, dated 2007)

What was measured:
[1] = test system: other sesquiterpene synthases; conditions: other sesquiterpene synthases (Cai et al 2002, Steele et al 1998); read-out: Km reported in the literature; cited from earlier work
[2] = biological target: T1, alpha-farnesene synthase (Malus domestica, UniProt Q84LB2, A297S/I281F); type: biochemical; conditions: for Vrel (%), relative activity due to additions of metal ions: saturating FDP, Mg 7 mM, Mn 150 μM, KCl or NaCl 50 mM
T1 construct: a cDNA fragment encoding EST57400 was excised from pBK-CMV57400 using a EcoRI restriction endonuclease site immediately adjacent to the start ATG; His6 (from vector pET-30a) (N); made in house; host or cells: E. coli BL21-CodonPlus-RIL
Experimental: Kinetic Studies: For kinetic studies, alpha-farnesene synthase active protein that had been induced in culture and purified as described for protein optimisation was added to a minimal assay buffer containing 50 mM Bis-Tris-Propane (pH 7.5), 10% (v/v) glycerol, 1 mM DTT and 0.1% (v/v) Tween-20. […] One mL assays containing 1-2 μg of protein were overlaid with 0.6 mL pentane and incubated in 1.5 mL microfuge tubes for 2 hours at 30° C. and 150 rpm. All assays were performed in triplicate. Following incubation assays were immediately placed on ice and a 200 μL aliquot of the pentane layer removed for analysis. The aliquots were added to 1.5 mL microfuge tubes containing […] Organic Counting Scintillant (OCS) (Amersham) and vortexed briefly. Scintillation analysis was performed using a Wallac 1409 Liquid Scintillation Counter (^3H efficiency≈70%).
The effect on enzyme activity of metal co-factors with and without salts was also tested. Mg^2+ and Mn^2+ were added in the presence and absence of 50 mM KCL and 50 mM NaCl in all possible combinations. Controls included incubation without enzyme, with enzyme but without metal ion cofactors and with enzyme and cofactors in the presence of 10 mM EDTA.
Kinetic constants were determined from the DPM data by nonlinear regression using the Origin50 graphics package. […] All experiments were carried out at least twice.

[3] = test system: CC(C)=CCC/C(C)=C/CC/C(C)=C/CO[P@@](=O)(O)OP(=O)(O)O; experiment: purified protein, by the assay type; conditions: other: protein stored at -80 C for 9 months; pH 7.5
[4] = Storage stability of purified recombinant alpha-farnesene synthase at -80 C; type: physicochemical
Experimental: Characterization of alpha-farnesene synthase from bacterial extracts and partially purified alpha-farnesene synthase recombinant protein: Cultures were set up, grown and induced as above. Following induction, cultures were immediately transferred to a 24° C. incubator and allowed to grow for a further 18-20 hours with continuous agitation and then cells harvested by centrifugation (2000×g for 10 min). […] The remainder of the extract (15 ml) was applied to PD-10 gel filtration columns (Amersham-Pharmacia Biotech) pre-equilibrated with either binding or extraction buffer (DTT omitted). Eluent fractions were then pooled and purification of recombinant protein was carried out in a single step using immobilised metal affinity chromatography (IMAC). The eluent was applied to a Hi-Trap Chelating HP column (Amersham-Pharmacia Biotech) charged with Ni^+. Non bound proteins were removed and recombinant protein was eluted following the manufacturer's specifications. […] Headspace volatiles were collected as in the bacterial cultures. Aliquots of the remaining recombinant protein were stored at −80° C. in 20% glycerol until required.
Protein concentration was determined from the extinction coefficient (VectorNTI version 8) and the purified extract adjusted to ˜1 mg protein/mL with His6 elution buffer containing 10% glycerol and 1 mM DTT. […]

Molecule: [Mn+2] [Mn^2+]
- Km [1]: 7 to 30 µM
- inhibition of activity at high Mn2+ concentration ([2]; >800 μM Mn2+): at least 50%
- Vrel (%), relative activity due to additions of metal ions [2]: 13%

Molecule: [Mg+2] [Mg^2+]
- Km [1]: 70 to 150 µM
- inhibition of activity at high Mg2+ concentration ([2]; 25 mM Mg2+): 23%
- Vrel (%), relative activity due to additions of metal ions [2]: 16%

Molecule: alpha-farnesene synthase (Malus domestica; A297S/I281F)
- Km [3]: 1.5 µM

B1: alpha-farnesene synthase: recombinant His-tagged sesquiterpene synthase from apple (Malus domestica Royal Gala) skin, expressed in E. coli (protein, listed as Malus domestica)
chain: MEFRVHLQADNEQKIFQNQMKPEPEASYLINQRRSANYKPNIWKNDFLDQSLISKYDGDEYRKLSEKLIEEVKIYISAETMDLVAKLELIDSVRKLGLANLFEKEIKEALDSIAAIESDNLGTRDDLYGTALHFKILRQHGYKVSQDIFGRFMDEKGTLENHHFAHLKGMLELFEASNLGFEGEDILDEAKASLTLALRDSGHICYPDSNLSRDVVHSLELPSHRRVQWFDVKWQINAYEKDICRVNATLLELAKLNFNVVQAQLQKNLREASRWWANLGFADNLKFARDRLVECFSCAVGVAFEPEHSSFRICLTKVINLVLIIDDVYDIYGSEEELKHFTNAVDRWDSRETEQLPECMKMCFQVLYNTTCEIAREIEEENGWNQVLPQLTKVWADFCKALLVEAEWYNKSHIPTLEEYLRNGCISSSVSVLLVHSFFSITHEGTKEMADFLHKNEDLLYNISLIVRLNNDLGTSAAEQERGDSPSSIVCYMREVNASEETARKNIKGMIDNAWKKVNGKCFTTNQVPFLSSFMNNATNMARVAHSLYKDGDGFGDQEKGPRTHILSLLFQPLVN
modifications: His tag
notes: recombinant His-tagged sesquiterpene synthase from apple (Malus domestica Royal Gala) skin, expressed in E. coli
- loss of activity on storage ([4]; stored at -80 C for 9 months): 92.5%
- loss of activity on storage ([4]; stored in glycerol for 4 weeks at -80 C): 15%
- temperature of maximum activity ([2]; 7 mM Mg, 150 μM Mn, 25 μM FDP, FIG. 14): 37 °C
